What was measured:
SH-SY5Y cells = test: Western blot of SH-SY5Y cell lysates; assay type: cell-based; settings: co-treatment with trametinib, in the presence of Aβ1-42 oligomers
Description: (§1) Cell culture: SH-SY5Y neuroblastoma cells were cultured at 37° C., 5% CO2., in Dulbecco's Modified Eagle Medium/Ham's F-12 nutrient mixture (DMEM/F12) (Invitrogen, Carlsbad, Calif.) supplemented with 10% heat-inactivated fetal bovine serum containing 100 units/ml penicillin, 100 μg/ml streptomycin. Primary cortical neuron cultures were derived from embryo day 18 (E18) from ICR mice. The dissociated cells were plated on glass cover slips coated with poly-D-lysine in Neurobasal medium supplemented with 2% B27 (Invitrogen), 100 units/ml penicillin, 100 μg/ml streptomycin, and 2 mM L-glutamine. Primary NSCs from normal mice were isolated from the subventricular zone (SVZ) of 8 week-old C57BL/6 mice brain. NSCs from adult Tg2576 mice brain were obtained from Seoul National University Hospital. The neurospheres were cultured as previously described (M. Y. Kim, B. S. Moon, K. Y. Choi, Isolation and maintenance of cortical neural progenitor cells in vitro. Methods Mol Biol 1018, 3-10 (2013)). For neurosphere culture from normal mice, the cells were dissociated from brain tissue and grown in N2 medium in 25 cm^2 flasks (SPL, Gyeonggi-do, Korea) in suspension. bFGF (20 ng/ml, Peprotech, Princeton, N.J.) and human EGF (20 ng/ml, Peprotech) were added to the media to allow the cells to form neurospheres. For analyses, NSCs were cultured as a monolayer. For differentiation of NSCs, the neurospheres were dissociated with TrypLE (Invitrogen), plated on 15 μg/ml poly-L-ornithine-(Sigma-Aldrich, St. Louis, Mo.) and 10 μg/ml fibronectin (Gibco)-coated plates, and cultured in bFGF- and EGF-depleted N2 medium for 2 days. For neurosphere culture from Tg2576 mice, the cells were grown in DMEM/F12 supplemented with B27 supplements in 75 cm^2 flasks (SPL) in suspension. bFGF (10 ng/ml) and human EGF (10 ng/ml) were added to the media to allow the cells to form neurospheres. For inducing differentiation and AP expression, the neurospheres were dissociated with pipetting, plated on 15 μg/ml poly-L-ornithine- and 10 μg/ml fibronectin (Gibco)-coated plates, and cultured in bFGF- and EGF-depleted medium for 2 days.
(§2) Lysates were centrifuged at 13,000 rpm for 20 min at 4° C., and the protein content in the supernatant was determined using the Bradford assay (Bio-rad, Hercules, Calif.). For subcellular fractionation, cells were lysed with lysis buffer (250 mM Sucrose, 20 mM HEPES, pH 7.4, 10 mM KCl, 1.5 mM MgCl2, 1 mM EGTA, 1 mM EDTA, 1 mM DTT) containing protease inhibitor for 30 min on ice, followed by centrifugation at 720 g for 5 min at 4° C. Supernatants were centrifuged at 15,000 rpm for 10 min at 4° C., and the resulting supernatant was used as the cytosol fraction. After centrifugation at 720 g for 5 min, pellets were washed with lysis buffer and dissolved in nuclear lysis buffer (50 mM Tris HCl, pH 8.0, 150 mM NaCl, 1% NP40, 0.5% sodium deoxycholate, 0.1% SDS, 10% glycerol) as the nuclear fraction. Protein from each sample was subjected to 8%˜15% SDS-PAGE, and the resolved proteins were transferred to nitrocellulose or polyvinylidene fluoride membrane. The membranes were blocked with 5% nonfat milk powder in Tris-buffered saline/Tween 20 (TBST) for 1 h at room temperature, then incubated with anti-phospho-ERK (Cell signaling), anti-ERK (Cell signaling), anti-LAMP1 (Abcam), anti-LC3 (Cell signaling), anti-cathepsin B (Cell signaling), anti-p62 (Cell signaling), anti-p62 (5114, Cell signaling), anti-phospho-mTOR (5536, Cell signaling), anti-mTOR (2983, Cell signaling), anti-phospho-ULK1 (14202, Cell signaling), anti-ULK1 (8054, Cell signaling), anti-TFEB (852501, Biolegend), and anti-GAPDH (Cell signaling) overnight at 4° C.

primary cortical neurons [1] = test: Dendritic spine formation in primary cortical neurons; assay type: cell-based, ICR mice; settings: Aβ1-42 oligomer alone
Description: as §1, with “For inducing differentiation and AP expression, the neurospheres were dissociated with pipetting, plated on 15 μg/ml poly-L-ornithine- and 10 μg/ml fibronectin (Gibco)-coated plates, and cultured in bFGF- and EGF-depleted medium for 2 days.” left out

primary cortical neurons [2] = test: Western blot of primary cortical neurons; assay type: cell-based, ICR mice; settings: Aβ1-42 oligomers alone
Description: as §2

Q: With `CO/C1=C\C(C)=C\[C@@H](C)[C@@H](O)[C@@H](C)C/C(C)=C/C=C/[C@H](OC)[C@@H]([C@@H](C)[C@@H](O)[C@H](C)[C@@]2(O)C[C@@H](O)[C@H](C)[C@@H](C(C)C)O2)OC1=O` [bafilomycin A1] as the compound, how does the “effect of trametinib on increasing mature cathepsin B and decreasing p62” value (SH-SY5Y cells) read?
A: eliminated the effect of trametinib

Q: For “Aβ1-42 oligomers: cytotoxic oligomers of Aβ1-42 used to induce neurotoxic conditions”, which “decrease in number of dendritic spines compared to vehicle treated group (CTL)” value (primary cortical neurons [1]) is on record?
A: 24%

Q: And the “decrease of mature cathepsin B level compared to non-treated neurons (CTL)” value (primary cortical neurons [2])?
A: 26%

Reference: US20220265657A1, “ADMINISTRATION METHOD AND DOSAGE REGIMEN FOR TREATMENT OF NEURODEGENERATIVE DISEASES USING TRAMETINIB AND MARKERS” (GENUV INC., priority 2019, published 2022)
